Columns and labels:
NCI-H1975 cells [1] = experiment: Colony formation, NCI-H1975; format: cell-based, human; details: NCI-H1975, 72 h treatment then 10 days culture
Source text: (§1) The cells were then washed once with PBS and continue to culture with full-growth medium for 10 days, change the culture medium to fresh ones every three days. Cells were stained with 0.1% crystal violet after fixing with 100% methanol.

NCI-H1975 xenograft = experiment: NCI-H1975 nude mouse xenograft model; format: in vivo
Procedure: (§2) All animal experiments were followed the guidelines approved by the Seoul National University Institutional Animal Care and Use Committee (IACUC permission number SNU-170103-2-1). […]. Drug treatment started when their tumor volumes reached to 80–100 mm^3. […]. Body weight and tumor size were measured three times per week. The tumor size was calculated according to the formula V = 0.5 × length × width^2.

NCI-H1975 cells [2] = experiment: Annexin V-FITC/PI apoptosis assay, NCI-H1975; format: cell-based, human; details: NCI-H1975, 0.4 μM, 48 h; control 4.15%
Procedure: (§3) Annexin FITC/PI assay was performed as described previously. Cell apoptosis was evaluated using Annexin V FITC/PI apoptosis detection kit (BD Biosciences, San Jose, CA, USA) according to the manufacturer’s instruction. […] Wash the cells with cold PBS buffer before staining with 5 μL of Annexin V-FITC and 5 μL of propidium iodide in the 500 μL 1× binding buffer. Finally, the stained cells were incubated for 15 min at room temperature in the dark before analyzing with FACS Calibur flow cytometer, (Becton Dickinson, San Jose, CA, USA).

[3] = Cell viability (SRB assay), normal MRC-5; format: cell-based; details: human, normal cell line
Procedure: (§4) Cell viability assay was performed using SRB assay as described previously [22].

A549 cells [4] = experiment: Cell viability (SRB assay), A549; format: cell-based, human
Procedure: as §4

c-Met = target: T1, c-Met (Homo sapiens, UniProt P08581); experiment: c-Met kinase activity assay (Met Kinase Assay/Inhibitor Screening Kit); format: biochemical; details: cell-free kinase activity
T1 construct: purchased Abnova KA0055
T1 sequence (P08581 25-1390): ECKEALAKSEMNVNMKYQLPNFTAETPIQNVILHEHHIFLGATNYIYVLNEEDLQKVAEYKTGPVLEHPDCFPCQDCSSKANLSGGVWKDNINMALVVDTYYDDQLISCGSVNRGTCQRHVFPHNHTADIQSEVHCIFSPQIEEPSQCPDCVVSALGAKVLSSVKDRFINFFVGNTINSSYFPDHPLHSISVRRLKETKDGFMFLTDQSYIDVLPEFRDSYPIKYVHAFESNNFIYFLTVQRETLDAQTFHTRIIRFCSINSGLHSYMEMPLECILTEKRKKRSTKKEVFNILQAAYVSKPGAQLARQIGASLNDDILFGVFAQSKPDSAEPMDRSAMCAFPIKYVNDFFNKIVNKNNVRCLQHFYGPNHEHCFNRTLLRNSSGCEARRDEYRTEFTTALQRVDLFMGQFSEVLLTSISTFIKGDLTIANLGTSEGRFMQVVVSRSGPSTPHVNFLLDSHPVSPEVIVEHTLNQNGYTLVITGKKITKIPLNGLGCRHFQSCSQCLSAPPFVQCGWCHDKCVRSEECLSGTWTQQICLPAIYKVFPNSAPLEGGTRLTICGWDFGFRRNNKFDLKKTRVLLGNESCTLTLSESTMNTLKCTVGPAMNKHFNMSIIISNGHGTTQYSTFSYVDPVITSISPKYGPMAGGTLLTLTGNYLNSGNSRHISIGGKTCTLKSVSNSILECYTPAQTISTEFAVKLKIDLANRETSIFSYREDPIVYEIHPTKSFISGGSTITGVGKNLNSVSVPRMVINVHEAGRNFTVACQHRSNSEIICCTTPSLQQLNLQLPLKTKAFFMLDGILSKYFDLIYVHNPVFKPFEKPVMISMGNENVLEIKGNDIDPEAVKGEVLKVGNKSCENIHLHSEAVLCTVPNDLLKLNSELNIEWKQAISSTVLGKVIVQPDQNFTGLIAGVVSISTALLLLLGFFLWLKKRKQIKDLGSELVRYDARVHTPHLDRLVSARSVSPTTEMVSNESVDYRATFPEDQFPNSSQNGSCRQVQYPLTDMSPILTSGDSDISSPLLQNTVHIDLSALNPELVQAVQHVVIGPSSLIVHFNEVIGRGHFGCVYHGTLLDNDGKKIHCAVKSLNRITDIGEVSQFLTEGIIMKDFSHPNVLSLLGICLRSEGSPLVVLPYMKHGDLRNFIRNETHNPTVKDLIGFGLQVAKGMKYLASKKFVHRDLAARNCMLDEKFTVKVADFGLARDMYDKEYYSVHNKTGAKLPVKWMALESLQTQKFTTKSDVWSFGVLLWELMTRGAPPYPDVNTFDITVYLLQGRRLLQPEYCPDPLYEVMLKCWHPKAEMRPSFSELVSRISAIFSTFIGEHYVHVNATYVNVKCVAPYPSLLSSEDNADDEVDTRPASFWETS

A549 xenograft = experiment: A549 nude mouse xenograft model; format: in vivo
Procedure: as §2

phospho-Met = experiment: Phospho-receptor tyrosine kinase array, A549; format: cell-based, human; details: A549 cells, 0.2 μM
Procedure: Phosphorylated RTKs were measured with the Human Phospho-RTK Array Kit (ARY001B) from R&D Systems (Minneapolis, MN, USA) according to the manufacturer’s instructions.

[5] = Pharmacokinetic study in male ICR mice; format: in vivo; details: mouse, plasma, po 10 mg/kg
Procedure: The male ICR mice (25–30 g, 7–8 weeks of age) were purchased from Koatech Co. (Pyeontak, Kyonggi-do, Korea). Animals were fed with free access to standard chow diet and water. All animal use and care followed the guidelines approved by the Institutional Animal Care and Use Committee of Flow Sciences.INC. (Approval No.: NDDC PK 2018 076 01-DFX117-(4364)). Animals were acclimatized for 1 week at of 23–25 °C temperature, 40–70% relative humidity and 12 h light/12 h dark cycle before study. […] Approximately 80 µL of blood samples were collected into BD Microtainer plasma separator tubes at times 0.25, 0.5, 1.0, 2.0, 4.0, 6.0 and 8.0 h through the saphenous vein over […] post dosing. Blood samples were centrifuged at 15,000 rpm for 5 min and stored in a freezer until analysis. Protein precipitation was conducted on 15 µL of plasma samples using three volumes of acetonitrile containing carbamazepine as an internal analytical standard. After centrifugation, the supernatant was analyzed on a Nexera XR system (Shimadzu, Japan) system coupled with TSQ vantage triple quadruple (Thermo Fisher Scientific, Waltham, MA, USA) system. Chromatographic separation was performed on a Kinetex XB-C18 column (2.1 × 100 mm, 2.6 μm, particle size; Phenomenex, CA, USA) running a linear gradient of solvent A (0.1% formic acid in deionized water) and B (0.1% formic acid in acetonitrile). Detection of the analyte ions was performed in a positive MRM mode, monitoring the following precursor >product ion transitions: m/z 573.1 > 417.8. Analytical data were processed using MassHunter B04.01 (Agilent Korea, Seoul, Korea). Pharmacokinetic parameters were calculated via non-compartmental analysis of the plasma concentration-time profiles using PK Solver.

A549 cells [6] = experiment: Colony formation, A549; format: cell-based, human; details: A549, 72 h treatment then 10 days culture
Source text: as §1

A549 cells [7] = experiment: Annexin V-FITC/PI apoptosis assay, A549; format: cell-based, human; details: A549, 0.4 μM, 48 h; control 6.09%
Procedure: as §3

NCI-H1975 cells [8] = experiment: Cell viability (SRB assay), NCI-H1975; format: cell-based, human
Procedure: as §4

COc1ncc(-c2ccc3ncc(C(=O)NCCN4CCOCC4)n3c2)cc1NS(=O)(=O)c1ccc(F)cc1F [DFX117, 6-(5-(2,4-difluorophenylsulfonamido)-6-methoxypyridin-3-yl)-N-(2-morpholinoethyl) imidazo[1,2-a]pyridine-3-carboxamide]
Colony formation (NCI-H1975 cells [1]): significantly inhibited
Overt toxicity or body weight change (NCI-H1975 xenograft; 10 or 20 mg/kg orally daily for 23 days): No overt toxicity or body weight change was observed
Tumor weights (NCI-H1975 xenograft; oral daily for 23 days): significantly inhibited
Population of apoptotic cells (Annexin V positive) (NCI-H1975 cells [2]): 32.75%
IC50 [3]: 2890 nM
Growth inhibitory activity compared with HS-173 (A549 cells [4]): superior to that of HS-173
IC50 (c-Met): 17.1 nM
Overt toxicity or body weight change (A549 xenograft; A549 xenograft, 5, 10 or 20 mg/kg orally daily for 23 days): No overt toxicity or body weight change was observed
Excised tumor weights on the termination day (A549 xenograft; A549 xenograft, oral daily for 23 days): significantly inhibited
Phospho-Met level (phospho-RTK array) (phospho-Met): markedly suppressed
AUC [5]: 3340 ng·h/mL
Cmax [5]: 4500 ng/mL
Tmax [5]: 0.3 h
half-life [5]: 2.1 h
MRT inf ([5]; read-out: MRTinf_obs): 2.2 h
Colony formation (A549 cells [6]): significantly inhibited
Population of apoptotic cells (Annexin V positive) (A549 cells [7]): 26.84%
Growth inhibitory activity compared with HS-173 (NCI-H1975 cells [8]): superior to that of HS-173

From publication PMC6562471 (Cancers, 2019)
